Experimental data as given in US5256395A, “Affinity enhancement immunological reagents for in vivo detection and killing of specific target cells” (Immunotech Partners, priority 1986, dated 1993).
Side chains are listed from the residue outwards. Peptide text beside a SMILES is read from it. * marks the point of attachment. Dnp = O=[N+]([O-])c1ccc(*)c([N+](=O)[O-])c1; Ahx = NCCCCCC(=O)O

Legend:
[1] = system: anti-Lyb8.2-anti-DNP conjugate (compound 3) on BALB/c mouse spleen cells; assay: Binding of 111In-labeled probe to mouse spleen cells in the presence of conjugate; conditions: 111In-labeled tracer, BALB/c spleen cells 10^7 cells/ml, 37° C., 2 h, compound 3 at 3.10^-9 M
Procedure: (§1) In an Eppendorf plastic tube are incubated 100 μl of a cell suspension at 3.10^7 cells/ml of a human T-cell line (HPBALL) or of a human B lymphoma line (Namalwa) in phosphate buffered saline supplemented with 0.1% bovine serum albumin, 0.02% azide and 50 mM deoxyglucose, 100 μl of a solution of dual specificity conjugate, anti-CD5 (compound 1) or anti-CALLA (compound 2), at 0.5 μg/ml in the same buffer and 150 μl of radioiodinated compound 6 or compound 7. After 3 h at 4° C. or 37° C. with agitation, 100 μl of the resulting cell suspension are transferred into triplicate 0.4 ml plastic tubes containing 200 μl of a 1.2:1 mixture of dibutyl-phthalate and ethyl-hexyl-phthalate. After 30 sec centrifugation at 10,000 g, 50 μl of the supernatant are collected and counted, and the bottom of the tube, containing the cell pellet, is cut and counted. Results are then expressed as bound/free percentages.
Compound 4, and the monomeric analogue, compound 5, (0.2 nmol) have been labeled with 0.2 mCi of ^111 In chloride by incubation at room temperature in 0.1M citrate buffer for 30 min. […] After incubation of freshly isolated BALB/c mouse spleen cells (10^7 cells/ml) at 37° C. for 2 h in the presence of anti-Lyb8.2-anti-DNPconjugate (compound 3) at 3.10^-9 M, binding of the labeled compounds 4 and 5 was monitored as described in example 4. […]

[2] = system: anti-CALLA-anti-DNP dual specificity conjugate (compound 2) on Namalwa cells (human B lymphoma line); assay: Binding of radioiodinated probe to target cells in the presence of excess dual specificity conjugate; conditions: for Bound/free (%): compound 2 at 0.5 μg/ml present, 3 h; for Bound/free (%), SB = Specific Binding: excess conjugate present
Procedure: as §1
(§2) The experimental settings allow cross-controlled experiments, since HPBALL cells express the T-cell marker CD5, but not the tumor-associated antigen CALLA, whereas Namalwa cells express CALLA, but not CD5.

[3] = system: anti-CALLA-anti-DNP dual specificity conjugate (compound 2; F(ab')2 clone ALB1 coupled to anti-DNP Fab' clone U7-27) with HPBALL cells (human T-cell line); assay: as above; conditions: HPBALL cells (no CALLA), compound 2 at 0.5 μg/ml present, 3 h
Procedure: as §1, §2

[4] = system: anti-CD5-anti-DNP dual specificity conjugate (compound 1) with Namalwa cells (human B lymphoma line); assay: as above; conditions: Namalwa cells (no CD5), compound 1 at 0.5 μg/ml present, 3 h
Procedure: as §1, §2

[5] = system: anti-CD5-anti-DNP dual specificity conjugate (compound 1; F(ab')2 clone BL1a coupled to anti-DNP Fab' clone U7-27) on HPBALL cells (human T-cell line); assay: as above; conditions: for Bound/free (%): compound 1 at 0.5 μg/ml present, 3 h; for Bound/free (%), SB = Specific Binding: excess conjugate present
Procedure: as §1, §2

[6] = system: anti-CALLA-anti-DNP dual specificity conjugate (compound 2) on Namalwa cells (human B lymphoma line); assay: Binding of radioiodinated probe to target cells after washing the excess dual specificity conjugate; conditions: for Bound/free (%): compound 2 1 h then washed 3 times, tracer 2 h; for Bound/free (%), SB = Specific Binding: excess conjugate washed
Procedure: as §1
(§3) The experimental conditions are similar to that described above but the dual specificity conjugate is incubated first for 1 h, then the cells are washed 3 times and the tracer is added. The cells are then pelleted after another 2 h incubation. Results.

[7] = system: anti-CALLA-anti-DNP dual specificity conjugate (compound 2) with HPBALL cells (human T-cell line); assay: as above; conditions: HPBALL cells (no CALLA), compound 2 1 h then washed 3 times, tracer 2 h, 37° C.
Procedure: as §1, §3

[8] = system: anti-CD5-anti-DNP dual specificity conjugate (compound 1) on HPBALL cells (human T-cell line); assay: as above; conditions: 37° C.; for Bound/free (%): compound 1 1 h then washed 3 times, tracer 2 h; for Bound/free (%), SB = Specific Binding: excess conjugate washed
Procedure: as §1, §3

[9] = system: anti-CD5-anti-DNP dual specificity conjugate (compound 1) with Namalwa cells (human B lymphoma line); assay: as above; conditions: Namalwa cells (no CD5), compound 1 1 h then washed 3 times, tracer 2 h
Procedure: as §1, §3

Row | SMILES | bound/free [1] [%] | Bound/free (%) ([2]; 4° C.) | Bound/free (%) ([2]; 37° C.) | Bound/free (%), SB = Specific Binding ([2]; 4° C.) [%] | Bound/free (%), SB = Specific Binding ([2]; 37° C.) [%] | Bound/free (%) ([3]; 4° C.) | Bound/free (%) ([3]; 37° C.) | Bound/free (%) ([4]; 4° C.) | Bound/free (%) ([4]; 37° C.) | Bound/free (%) ([5]; 4° C.) | Bound/free (%) ([5]; 37° C.) | Bound/free (%), SB = Specific Binding ([5]; 4° C.) [%] | Bound/free (%), SB = Specific Binding ([5]; 37° C.) [%] | Bound/free (%) ([6]; 4° C.) | Bound/free (%) ([6]; 37° C.) | Bound/free (%), SB = Specific Binding ([6]; 4° C.) [%] | Bound/free (%), SB = Specific Binding ([6]; 37° C.) [%] | Bound/free (%) [7] [%] | Bound/free (%) [8] [%] | Bound/free (%), SB = Specific Binding [8] [%] | further results
1 | O=C(O)CN(CCN(CC(=O)O)CC(=O)O)CCN(CC(=O)O)CC(=O)N[C@@H](CCCCNc1ccc([N+](=O)[O-])cc1[N+](=O)[O-])C(=O)O [compound 5, (N-ε-(2,4-dinitrophenyl)-L-Lysyl)-diethylenetriamine-pentaacetic acid] | 6 | – | – | – | – | – | – | – | – | – | – | – | – | – | – | – | – | – | – | – | –
2 | O=C(O)CNC(=O)[C@H](Cc1ccc(O)cc1)NC(=O)CCCCCNc1ccc([N+](=O)[O-])cc1[N+](=O)[O-] [compound 7, N-α-(2,4-dinitrophenyl-aminocaproyl)-L-tyrosyl-gylicine] | – | 6 | 5 | 4 | 4 | 3 | 3 | 2 | 1 | 38 | 12 | 35 | 9 | 50 | 4 | 42 | 2 | 3 | 11 | 7 | Bound/free (%) ([9]; 4° C.): 8%; Bound/free (%) ([9]; 37° C.): 2%
3 | O=C(O)CN(CCN(CC(=O)O)CC(=O)N[C@@H](CCCCNc1ccc([N+](=O)[O-])cc1[N+](=O)[O-])C(=O)O)CCN(CC(=O)O)CC(=O)N[C@@H](CCCCNc1ccc([N+](=O)[O-])cc1[N+](=O)[O-])C(=O)O [compound 4, bis-(N-ε-(2,4-dinitrophenyl)-L-Lysyl)diethylenetriamine-pentaacetic acid] | 26 | – | – | – | – | – | – | – | – | – | – | – | – | – | – | – | – | – | – | – | –
4 | O=C(CCCCCNc1ccc([N+](=O)[O-])cc1[N+](=O)[O-])NCCCC[C@H](NC(=O)[C@H](Cc1ccc(O)cc1)NC(=O)CCCCCNc1ccc([N+](=O)[O-])cc1[N+](=O)[O-])C(=O)O [compound 6, N-α-(2,4-dinitrophenyl-aminocaproyl)-L-tyrosyl-N-ε-(2,4-dinitrophenyl-aminocaproyl)-L-lysine] ({Dnp-Ahx}-Tyr-Lys([Ahx-Dnp])-OH) | – | 23 | 21 | 21 | 17 | 16 | 15 | 2 | 4 | 72 | 67 | 56 | 52 | 145 | 11 | 130 | 7 | 9 | 45 | 36 | Bound/free (%) ([9]; 4° C.): 15%; Bound/free (%) ([9]; 37° C.): 4%
